In patent US20220387467A1, “USE OF SGLT2 INHIBITORS TO TREAT PRIMARY BILLIARY CHOLANGITIS” (AVOLYNT, priority 2019, published 2022):
Entries after “also recorded” stand apart in the source; their conditions may differ.

Tests used:
TIA mice = assay: TIA mouse model of liver and biliary disease resembling PBC/PSC, H&E liver histology and survival; format: in vivo; details: for inflammation at the interface between the hepatic parenchyma and the portal tracts (interface hepatitis) / proliferation of bile ductules (bile ductular proliferation) / periportal and biliary inflammation: TIA mice at 11 weeks, H&E liver sections, vs untreated TIA mice; for inflammation at the interface between the hepatic parenchyma and the portal tracts (interface hepatitis): 0.03% in chow for 7 weeks; for proliferation of bile ductules (bile ductular proliferation) / periportal and biliary inflammation: 0.03% in chow from 4 weeks of age
From the text: The following Examples describe the utilization of a murine model of liver damage to assess the effectiveness of a treatment regimen based on the oral administration of remogliflozin etabonate. The murine model is based on mice that are deficient for the expression of tumor necrosis factor alpha (“TNFα”), interleukin 10 (“IL-10”), and activation-induced cytidine deaminase (“AICDA”). As the mice are deficient in TNF, IL-10, and AICDA, they are referred to, herein, as “TIA” mice. These liver outcomes in these animals also closely resemble that of PBC.
Moreover, as AICDA is required for immunoglobulin (“Ig”) class switching, TIA mice lack IgG and IgA, a phenotype analogous to humans with hyper-IgM syndrome. Therefore, with the combination of AICDA deficiency with the risk factors associated with TNFα and IL-10 deficiencies, TIA mice also develop liver and biliary inflammation reminiscent of PSC and PBC symptoms in humans. Accordingly, the TIA model is useful for investigating mechanisms that act early in PBC pathogenesis, as well as treatments that can prevent progression to PBC and PSC.
Example 1. Orally-administered remogliflozin etabonate reduces inflammatory cell infiltration, bile ductular proliferation, and interface hepatitis in TIA mice. TIA mice were created by first breeding TNFα knock out (“KO”) C57BL/6 mice, (strain B6.129S-Tnf^tm1Gkl/J, stock #005540, Jackson Laboratories, Bar Harbor, Me.) with IL-10 KO mice (strain B10.129P2(B6)-IL10^tm1Cgn/J, Stock No. 002251, Jackson Laboratories) to produce a population of mice that were deficient in TNFα and IL-10. Because mice with a TNFα −/− and IL10 −/− genotype spontaneously develop inflammatory bowel disease (“IBD”) (Hale 2012), a condition associated with poor breeding success (Nagy 2016), the mice needed for further breeding to generate an AICDA population, were generated by breeding offspring with a TNFα and IL10+/− genotype with AICDA −/− mice, which were obtained from Dr. Tasuku Honjo (Muramatsu 2000)), to produce a population of TNFα −/−, IL10 −/−, and AICDA+/−(“TI-hetA”) males and females. In turn, TI-hetA pairs were bred to generate populations that were 25% TIA mice, and 50% non-colitis-susceptible TI-hetA littermates that could be used as control populations. All populations were exposed to the same environment from birth. The mice were housed in polycarbonate micro-isolator cages, in individually ventilated racks, under barrier conditions that excluded all known pathogens, including Helicobacter pylori and Norovirus. Mice had ad libitum access to water, and to a standard diet (PicoLab Mouse Diet 20/5058, LabDiet, St. Louis, Mo., USA).
At four (4) weeks of age, TIA (40) and TI-hetA (22) mice were randomized into experimental groups that received either a standard diet (20 TIA and 12 het), or a standard diet formulated 0.03% remogliflozin etabonate (20 TIA and 10 het) (Avolynt Inc., USA). The mice were maintained on this diet for seven (7) weeks. Body weights were obtained three (3) times, weekly, to assess the general health of mice, and to track the development of inflammatory bowel disease (IBD). Glycosuria in the experimental groups was assessed by applying freshly voided urine directly to the glucose test patch on an Accutest® URS-10 urinary reagent test strips (Jant Pharmaceutical Corp., Encino, Calif., USA). Mice were humanely euthanized before reaching the experimental endpoint, of eleven (11) weeks of age, if they lost >15% body weight, or developed rectal prolapse.
To characterize biliary lesions in TIA mice at the end of the 7 week treatment period, liver tissue was obtained from the remogliflozin-treated, and untreated groups, for histologic examination. The excised liver tissue was fixed in Carnoy's fixative solution, and processed into paraffin blocks. The paraffin blocks were sectioned, and stained with Hematoxylin and eosin (H&E) for pathologic analysis. The H&E-stained sections were scored by an American Board of Pathology-certified pathologist. […]

[1] = Plasma remogliflozin after oral immediate release (IR) tablet; format: in vivo
From the text: Oral dosage forms according to the invention are typically tablets or capsules. Tablets can be obtained by direct compression of the mixed components of a dosage form, including a therapeutically effective amount of an SGLT2 inhibitor, and selected excipients, like cellulose derivatives, metacrylates, chitosan, carboxymethylstarch, or mixtures thereof. For example, a compressed tablet according to the invention, can be prepared by granulating a SGLT2 inhibitor with microcrystalline cellulose and croscarmellose sodium with a water and povidone solution. The resulting granules are dried, milled, and then blended with mannitol, microcrystalline cellulose, and croscarmellose. The blend is lubricated with magnesium stearate and compressed. […] Indeed, Tmax for an IR remogliflozin etabonate oral dosage form according to the invention occurs at 1 hour, or less, following ingestion of the dosage form by a subject.

Compound: CCOC(=O)OC[C@H]1O[C@@H](Oc2nn(C(C)C)c(C)c2Cc2ccc(OC(C)C)cc2)[C@H](O)[C@@H](O)[C@@H]1O [remogliflozin etabonate]
- number of TIA mice that required early euthanasia (TIA mice; Remo group versus control group, 7 week study): no statistical difference
- early death (TIA mice; Remo group versus control group, not statistically significant): trend toward decreased early death
- inflammation at the interface between the hepatic parenchyma and the portal tracts (interface hepatitis) (TIA mice): reduces
- inflammation at the interface between the hepatic parenchyma and the portal tracts (interface hepatitis) (TIA mice; listed as remogliflozin): less inflammation
- proliferation of bile ductules (bile ductular proliferation) (TIA mice): reduces
- periportal and biliary inflammation (TIA mice; listed as Remo): decrease in periportal and biliary inflammation
- proliferation of bile ductules (bile ductular proliferation) (TIA mice; listed as Remo): decrease in proliferation of bile ductules
- periportal and biliary inflammation (TIA mice; listed as remogliflozin): less inflammation
- proliferation of bile ductules (bile ductular proliferation) (TIA mice; listed as remogliflozin): less proliferation of bile ductiles
- development and progression of liver and biliary disease (TIA mice; TIA mice, 0.03% remogliflozin etabonate in diet for 7 weeks from 4 weeks of age, vs standard diet): prevents the progression of PBC disease pathology; also recorded: markedly less development and progression of liver and biliary disease
- inflammatory cell infiltration (TIA mice; TIA mice, oral, 0.03% in diet for 7 weeks): reduces
- Tmax ([1]; IR remogliflozin etabonate oral dosage form, following ingestion): ≤ 1 h
- remogliflozin plasma concentration after clearance ([1]; compressed IR tablet, 350 mg remogliflozin etabonate, oral, after 3 hrs): 40 ng/mL
- maximum remogliflozin plasma concentration (Cmax) ([1]; compressed IR tablet, 350 mg remogliflozin etabonate, oral, at 1 hr post-ingestion): 160 ng/mL
